Test results reported in patent US5972955A, “Water soluble C-ring analogues of 20(S)-camptothecin” (Dr. Reddy's Research Foundation, priority 1996, dated 1999).
“Also recorded” adds a separate entry of the source.

system: H 460; experiment: NCI in vitro growth inhibition, NSLC H 460; assay type: cell-based; conditions: Homo sapiens, NCI-H460, read-out: 50% Growth Inhibition (GI 50); H 460, NSLC; 48 h
Experimental: (§1) Inoculates were allowed a preincubation period of 24 h at 37° C. for stabilization.

Row | SMILES | GI50 [µM]
1 | CC[C@@]1(O)C(=O)OCc2c1cc1n(c2=O)C(NO)c2cc3ccccc3nc2-1 (some centres unmarked) [Example 1, 5-Hydroxylaminocamptothecin] | 0.48

system: H 522; experiment: NCI in vitro growth inhibition, NSLC H 522; assay type: cell-based; conditions: Homo sapiens, NCI-H522, read-out: 50% Growth Inhibition (GI 50); H 522, NSLC; 48 h
Experimental: as §1

Row | SMILES | GI50 [µM]
2 | CC[C@@]1(O)C(=O)OCc2c1cc1n(c2=O)C(NO)c2cc3ccccc3nc2-1 (some centres unmarked) [Example 1, 5-Hydroxylaminocamptothecin] | 0.2

system: HOP 62; experiment: NCI in vitro growth inhibition, NSLC HOP 62; assay type: cell-based; conditions: Homo sapiens, read-out: 50% Growth Inhibition (GI 50); HOP 62, NSLC; 48 h
Experimental: as §1

Row | SMILES | GI50 [µM]
3 | CC[C@@]1(O)C(=O)OCc2c1cc1n(c2=O)C(NO)c2cc3ccccc3nc2-1 (some centres unmarked) [Example 1, 5-Hydroxylaminocamptothecin] | 0.38

system: MCF7/ADR; experiment: NCI in vitro growth inhibition, breast MCF7/ADR; assay type: cell-based; conditions: Homo sapiens, NCI/ADR-RES, read-out: 50% Growth Inhibition (GI 50), 48 h
Experimental: as §1

Row | SMILES | GI50 [µM]
4 | CC[C@@]1(O)C(=O)OCc2c1cc1n(c2=O)C(NO)c2cc3ccccc3nc2-1 (some centres unmarked) [Example 1, 5-Hydroxylaminocamptothecin] | 2.18

system: topoisomerase I; experiment: not given; conditions: cited from earlier work

Row | SMILES | inhibition of topoisomerase I (in words)
5 | CC[C@@]1(O)C(=O)OCc2c1cc1n(c2=O)Cc2cc3ccccc3nc2-1 [20(S)-Camptothecin] | inhibitor of topoisomerise I
6 | C=C1C(=O)OCc2c1cc1n(c2=O)Cc2c-1nc1ccc(O)cc1c2CC [formula 8] | potent camptothecin like inhibition of topoisomerase I activity

system: ACHN; experiment: NCI in vitro growth inhibition, renal ACHN; assay type: cell-based; conditions: Homo sapiens, read-out: 50% Growth Inhibition (GI 50), 48 h
Experimental: as §1

Row | SMILES | GI50 [µM]
7 | CC[C@@]1(O)C(=O)OCc2c1cc1n(c2=O)C(NO)c2cc3ccccc3nc2-1 (some centres unmarked) [Example 1, 5-Hydroxylaminocamptothecin] | 0.4

system: T 47D; experiment: NCI in vitro growth inhibition, breast T 47D; assay type: cell-based; conditions: Homo sapiens, T47D, read-out: 50% Growth Inhibition (GI 50), 48 h
Experimental: as §1

Row | SMILES | GI50 [µM]
8 | CC[C@@]1(O)C(=O)OCc2c1cc1n(c2=O)C(NO)c2cc3ccccc3nc2-1 (some centres unmarked) [Example 1, 5-Hydroxylaminocamptothecin] | 0.2

system: MOLT-4; experiment: NCI in vitro growth inhibition, leukemia MOLT-4; assay type: cell-based; conditions: Homo sapiens, read-out: 50% Growth Inhibition (GI 50); MOLT-4, leukemia; 48 h
Experimental: as §1

Row | SMILES | GI50 [µM]
9 | CC[C@@]1(O)C(=O)OCc2c1cc1n(c2=O)C(NO)c2cc3ccccc3nc2-1 (some centres unmarked) [Example 1, 5-Hydroxylaminocamptothecin] | 0.18

system: M-14; experiment: NCI in vitro growth inhibition, melanoma M-14; assay type: cell-based; conditions: Homo sapiens, M14, read-out: 50% Growth Inhibition (GI 50); M-14, melanoma; 48 h
Experimental: as §1

Row | SMILES | GI50 [µM]
10 | CC[C@@]1(O)C(=O)OCc2c1cc1n(c2=O)C(NO)c2cc3ccccc3nc2-1 (some centres unmarked) [Example 1, 5-Hydroxylaminocamptothecin] | 0.37

system: NCI's 60 human tumor cell line assay; experiment: NCI 60 human tumor cell line assay, mean growth inhibition (Table 1); assay type: cell-based; conditions: read-out: IC50 = the mean value of the minimum drug concentration of the agent required to produce 50% cell growth inhibition (GI50); mean over NCI's 60 human tumor cell lines; 48 h; Sulforhodamine B
Experimental: as §1
^a IC50 = the mean value of the minimum drug concentration (μm) of
NCI's 60 human tumor cell line assay.

Row | SMILES | IC50 [µM]
11 | CC[C@@]1(O)C(=O)OCc2c1cc1n(c2=O)C(NO)c2cc3ccccc3nc2-1 (some centres unmarked) [Example 1, 5-Hydroxylaminocamptothecin] | 2.39

system: 786-O; experiment: NCI in vitro growth inhibition, renal 786-O; assay type: cell-based; conditions: Homo sapiens, 786-0, read-out: 50% Growth Inhibition (GI 50), 48 h
Experimental: as §1

Row | SMILES | GI50 [µM]
12 | CC[C@@]1(O)C(=O)OCc2c1cc1n(c2=O)C(NO)c2cc3ccccc3nc2-1 (some centres unmarked) [Example 1, 5-Hydroxylaminocamptothecin] | 0.56

system: SF-539; experiment: NCI in vitro growth inhibition, CNS SF-539; assay type: cell-based; conditions: Homo sapiens, read-out: 50% Growth Inhibition (GI 50); SF-539, CNS; 48 h
Experimental: as §1

Row | SMILES | GI50 [µM]
13 | CC[C@@]1(O)C(=O)OCc2c1cc1n(c2=O)C(NO)c2cc3ccccc3nc2-1 (some centres unmarked) [Example 1, 5-Hydroxylaminocamptothecin] | 1.2

system: SF 295; experiment: NCI in vitro growth inhibition, CNS SF 295; assay type: cell-based; conditions: Homo sapiens, read-out: 50% Growth Inhibition (GI 50); SF 295, CNS; 48 h
Experimental: as §1

Row | SMILES | GI50 [µM]
14 | CC[C@@]1(O)C(=O)OCc2c1cc1n(c2=O)C(NO)c2cc3ccccc3nc2-1 (some centres unmarked) [Example 1, 5-Hydroxylaminocamptothecin] | 0.25

system: not given; experiment: not given; conditions: in vivo; cited from earlier work

Row | SMILES | side effects / toxicity (in words)
15 | CC[C@@]1(O)C(=O)OCc2c1cc1n(c2=O)Cc2cc3ccccc3nc2-1 [20(S)-Camptothecin] | unacceptable side effects on humans; also recorded: high toxicity problems

system: not given; experiment: not given; conditions: cited from earlier work

Row | SMILES | water solubility (in words)
16 | CC[C@@]1(O)C(=O)OCc2c1cc1n(c2=O)Cc2cc3ccccc3nc2-1 [20(S)-Camptothecin] | low water solubility

system: MCF-7; experiment: NCI in vitro growth inhibition, breast MCF-7; assay type: cell-based; conditions: Homo sapiens, MCF7, read-out: 50% Growth Inhibition (GI 50); MCF-7, breast; 48 h
Experimental: as §1

Row | SMILES | GI50 [µM]
17 | CC[C@@]1(O)C(=O)OCc2c1cc1n(c2=O)C(NO)c2cc3ccccc3nc2-1 (some centres unmarked) [Example 1, 5-Hydroxylaminocamptothecin] | 0.34

system: LOX IMVI; experiment: NCI in vitro growth inhibition, melanoma LOX IMVI; assay type: cell-based; conditions: Homo sapiens, read-out: 50% Growth Inhibition (GI 50), 48 h
Experimental: as §1

Row | SMILES | GI50 [µM]
18 | CC[C@@]1(O)C(=O)OCc2c1cc1n(c2=O)C(NO)c2cc3ccccc3nc2-1 (some centres unmarked) [Example 1, 5-Hydroxylaminocamptothecin] | 3.38

system: HL 60; experiment: NCI in vitro growth inhibition, leukemia HL 60; assay type: cell-based; conditions: Homo sapiens, read-out: 50% Growth Inhibition (GI 50); HL 60, leukemia; 48 h
Experimental: as §1

Row | SMILES | GI50 [µM]
19 | CC[C@@]1(O)C(=O)OCc2c1cc1n(c2=O)C(NO)c2cc3ccccc3nc2-1 (some centres unmarked) [Example 1, 5-Hydroxylaminocamptothecin] | 0.38

system: H 23; experiment: NCI in vitro growth inhibition, NSLC H 23; assay type: cell-based; conditions: Homo sapiens, NCI-H23, read-out: 50% Growth Inhibition (GI 50); H 23, NSLC; 48 h
Experimental: as §1

Row | SMILES | GI50 [µM]
20 | CC[C@@]1(O)C(=O)OCc2c1cc1n(c2=O)C(NO)c2cc3ccccc3nc2-1 (some centres unmarked) [Example 1, 5-Hydroxylaminocamptothecin] | 1.62

system: SK MEL-5; experiment: NCI in vitro growth inhibition, melanoma SK MEL-5; assay type: cell-based; conditions: Homo sapiens, read-out: 50% Growth Inhibition (GI 50); SK MEL-5, melanoma; 48 h
Experimental: as §1

Row | SMILES | GI50 [µM]
21 | CC[C@@]1(O)C(=O)OCc2c1cc1n(c2=O)C(NO)c2cc3ccccc3nc2-1 (some centres unmarked) [Example 1, 5-Hydroxylaminocamptothecin] | 3.38

system: SR; experiment: NCI in vitro growth inhibition, leukemia SR; assay type: cell-based; conditions: Homo sapiens, read-out: 50% Growth Inhibition (GI 50), 48 h
Experimental: as §1

Row | SMILES | GI50 [µM]
22 | CC[C@@]1(O)C(=O)OCc2c1cc1n(c2=O)C(NO)c2cc3ccccc3nc2-1 (some centres unmarked) [Example 1, 5-Hydroxylaminocamptothecin] | 0.53

system: UACC 62; experiment: NCI in vitro growth inhibition, melanoma UACC 62; assay type: cell-based; conditions: Homo sapiens, read-out: 50% Growth Inhibition (GI 50); UACC 62, melanoma; 48 h
Experimental: as §1

Row | SMILES | GI50 [µM]
23 | CC[C@@]1(O)C(=O)OCc2c1cc1n(c2=O)C(NO)c2cc3ccccc3nc2-1 (some centres unmarked) [Example 1, 5-Hydroxylaminocamptothecin] | 0.37
